Measurements taken from patent US9657014B2, “Substituted 1,6-naphthyridines” (Hoffmann-La Roche Inc., priority 2012, dated 2017).

What follows are compounds tested on human embryonic stem cell derived neural stem cells (NSCs) (assay: Neural stem cell proliferation assay (neurogenesis assay)). Settings: Homo sapiens, Neural stem cell, 96 h; Table 1, novel compounds; concentration at which 150% activity of control (100%) is reached; ATP levels (CellTiterGlo) after 4 days incubation.
Type: cell-based
Method: Neural Stem Cell Proliferation Assay
Neurogenic properties of small molecules are determined based on the proliferation of human embryonic stem cell derived neural stem cells (NSCs) which were derived via a dual smad inhibition as previously described (Chambers, S. M., et al., Highly efficient neural conversion of human ES and iPS cells by dual inhibition of SMAD signaling, Nature biotechnology, 2009. 27 (3): p. 275-80.)
Compounds respond is measured by the increase in cells based on ATP levels (Promega:CellTiterGlo®) after an incubation period of 4 days.
NSCs are thawed and expanded over 3 passages. On the 14th day, NSCs are seeded in Polyornithin/Laminin coated 384 well plates at a cell density of 21,000 cells/cm^2 in a media volume of 38 μl.
4 hours after cell seeding, compound solutions are added at a volume of 2 μl. Stock solutions of the compounds (water, 5% DMSO) are diluted to obtain a dose response (11 points, dilution factor is 2), ranging from 8 μM to 8 nM. Controls are run to consistently determine the neurogenic properties of the cells:
Negative (neutral) control is cell culture Media (final DMSO concentration: 0.25%).
Positive controls are: • 1. cell culture Media+100 ng/ml FGF2 (final DMSO concentration: 0.1%) • 2. cell culture Media+20 ng/ml EGF (final DMSO concentration: 0.1%) • 3. cell culture Media+100 ng/ml Wnt3a (final DMSO concentration: 0.1%)
After 4 days incubation at 37° C., 5% CO2, the amount of ATP per well is quantified. The ATP concentration is proportional to the cell number. ATP is quantified by using the Promega CellTiterGlo® kit. The CellTiterGlo® reagents contain a cell lysis buffer, a thermo stable luciferase (UltraGlo™ recombinant luciferase), magnesium and luciferin. Luciferin reacts with ATP producing oxyluciferin, AMP and light. The luminescence signal is proportional to the ATP content.
The value of negative (neutral) control is determined for each assay plate by taking the average of 16 negative control wells. The neurogenic compound response is calculated for each compound as (compound/Negative Control)*100.
The values of EC150 from the dose response curve are determined for each test compound. The EC150 is the compound concentration at which 150% activity of control (100%) is reached.

In order of falling EC (150% of control):
1. N#CC1(NC(=O)c2ccc3cncc(-c4ccc(Cl)cc4)c3n2)CC1 [Example 76, 8-(4-Chlorophenyl)-N-(1-cyanocyclopropyl)-1,6-naphthyridine-2-carboxamide]  1.84 µM
2. O=C(c1ccc2cncc(-c3ccc(Cl)cc3)c2n1)N1CCS(=O)(=O)CC1 [Example 74, [8-(4-Chloro-phenyl)-[1,6]naphthyridin-2-yl]-(1,1-dioxo-thiomorpholin-4-yl)-methanone]  1.68 µM
3. CS(=O)(=O)c1ccc(CNC(=O)c2ccc3cncc(-c4cc(F)ccc4F)c3n2)cc1 [Example 116, 8-(2,5-Difluorophenyl)-N-(4-(methylsulfonyl)benzyl)-1,6-naphthyridine-2-carboxamide]  1.65 µM
4. O=C(NCc1ccncc1)c1ccc2cncc(Br)c2n1 [Example 9, 8-Bromo-[1,6]naphthyridine-2-carboxylic acid (pyridin-4-ylmethyl)-amide]  1.27 µM
5. O=C(NCCCn1ccnc1)c1ccc2cncc(-c3cccc(Cl)c3)c2n1 [Example 36, N-(3-(1H-Imidazol-1-yl)propyl)-8-(3-chlorophenyl)-1,6-naphthyridine-2-carboxamide]  1.04 µM
6. Cc1ccnc(-c2cncc3ccc(C(=O)NCc4ccccc4)nc23)c1 [Example 24, N-Benzyl-8-(4-methylpyridin-2-yl)-1,6-naphthyridine-2-carboxamide]  0.94 µM
7. CC(NC(=O)c1ccc2cncc(-c3cc(F)c(F)c(F)c3)c2n1)C(C)(C)O (centres unmarked) [Example 173, N-(3-Hydroxy-3-methylbutan-2-yl)-8-(3,4,5-trifluorophenyl)-1,6-naphthyridine-2-carboxamide]  0.9 µM
8. Cc1cc2cncc(-c3ccc(F)cc3)c2nc1C(N)=O [Example 153, 8-(4-Fluorophenyl)-3-methyl-1,6-naphthyridine-2-carboxamide]  0.79 µM
9. CN(CC1CC1)C(=O)c1ccc2cncc(-c3ccc(Cl)cc3)c2n1 [Example 66, 8-(4-Chlorophenyl)-N-(cyclopropylmethyl)-N-methyl-1,6-naphthyridine-2-carboxamide]  0.7 µM
10. Cc1cc2cncc(-c3ccc(C#N)cc3)c2nc1C(N)=O [Example 155, 8-(4-Cyanophenyl)-3-methyl-1,6-naphthyridine-2-carboxamide]  0.7 µM
11. CN1CCN(C(=O)c2ccc3cncc(-c4ccc(Cl)cc4)c3n2)CC1 [Example 73, (8-(4-Chlorophenyl)-1,6-naphthyridin-2-yl)(4-methylpiperazin-1-yl)methanone]  0.64 µM
12. CC(C)NC(=O)c1ccc2cncc(-c3ccc(Cl)cc3)c2n1 [Example 70, 8-(4-Chlorophenyl)-N-isopropyl-1,6-naphthyridine-2-carboxamide]  0.6 µM
13. O=C(NCc1ccccc1)c1ccc2cncc(-c3ccccc3Cl)c2n1 [Example 15, N-Benzyl-8-(2-chlorophenyl)-1,6-naphthyridine-2-carboxamide]  0.58 µM
14. CS(=O)(=O)c1ccc(CNC(=O)c2ccc3cncc(-c4ccc(F)cc4F)c3n2)cc1 [Example 114, 8-(2,4-Difluorophenyl)-N-(4-(methylsulfonyl)benzyl)-1,6-naphthyridine-2-carboxamide]  0.51 µM
15. Cc1cc2cncc(-c3ccc(Cl)cc3)c2nc1C(N)=O [Example 152, 8-(4-Chlorophenyl)-3-methyl-1,6-naphthyridine-2-carboxamide]  0.34 µM
16. CS(=O)(=O)CCNC(=O)c1ccc2cncc(-c3cc(F)ccc3F)c2n1 [Example 138, 8-(2,5-Difluorophenyl)-N-(2-(methylsulfonyl)ethyl)-1,6-naphthyridine-2-carboxamide]  0.26 µM
17. COCCNC(=O)c1ccc2cncc(-c3cccc(OC)c3)c2n1 [Example 3, N-(2-Methoxyethyl)-8-(3-methoxyphenyl)-1,6-naphthyridine-2-carboxamide]  0.26 µM
18. NC(=O)c1ccc2cncc(-c3cc(F)c(F)c(F)c3)c2n1 [Example 84, 8-(3,4,5-Trifluorophenyl)-1,6-naphthyridine-2-carboxamide]  0.25 µM
19. O=C(NCC(F)(F)F)c1ccc2cncc(-c3ccc(F)c(F)c3)c2n1 [Example 127, 8-(3,4-Difluorophenyl)-N-(2,2,2-trifluoroethyl)-1,6-naphthyridine-2-carboxamide]  0.23 µM
20. CS(=O)(=O)CCNC(=O)c1ccc2cncc(-c3cccc(F)c3)c2n1 [Example 134, 8-(3-Fluorophenyl)-N-(2-(methylsulfonyl)ethyl)-1,6-naphthyridine-2-carboxamide]  0.22 µM
21. Cc1cc(-c2cncc3ccc(C(N)=O)nc23)ccn1 [Example 90, 8-(2-Methylpyridin-4-yl)-1,6-naphthyridine-2-carboxamide]  0.17 µM
22. O=C(NCCC(F)(F)F)c1ccc2cncc(-c3ccc(Cl)cc3)c2n1 [Example 64, 8-(4-Chlorophenyl)-N-(3,3,3-trifluoropropyl)-1,6-naphthyridine-2-carboxamide]  0.15 µM
23. COc1ccccc1CNC(=O)c1ccc2cncc(-c3ccc(Cl)cc3)c2n1 [Example 47, 8-(4-Chlorophenyl)-N-(2-methoxybenzyl)-1,6-naphthyridine-2-carboxamide]  0.13 µM
24. O=C(NCCCn1ccnc1)c1ccc2cncc(-c3ccc(Cl)cc3)c2n1 [Example 37, N-(3-(1H-Imidazol-1-yl)propyl)-8-(4-chlorophenyl)-1,6-naphthyridine-2-carboxamide]  0.12 µM
25. CS(=O)(=O)CCNC(=O)c1ccc2cncc(-c3ccc(Cl)cc3)c2n1 [Example 72, 8-(4-Chlorophenyl)-N-(2-(methylsulfonyl)ethyl)-1,6-naphthyridine-2-carboxamide]  0.1 µM
26. CCCCCCNC(=O)c1ccc(-c2cncc3ccc(C(N)=O)nc23)cc1 [Example 147, 8-(4-(Hexylcarbamoyl)phenyl)-1,6-naphthyridine-2-carboxamide]  0.09 µM
27. O=C(NC1CC1)c1ccc2cncc(-c3ccc(Cl)cc3)c2n1 [Example 65, 8-(4-Chlorophenyl)-N-cyclopropyl-1,6-naphthyridine-2-carboxamide]  0.08 µM
28. CC(NC(=O)c1ccc2cncc(-c3ccc(Cl)cc3)c2n1)C(C)(C)O (centres unmarked) [Example 162, 8-(4-Chlorophenyl)-N-(3-hydroxy-3-methylbutan-2-yl)-1,6-naphthyridine-2-carboxamide]  0.06 µM
29. NC(=O)c1ccc2cncc(-c3cccc(OCC(F)(F)F)c3)c2n1 [Example 166, 8-(3-(2,2,2-Trifluoroethoxyl)phenyl)-1,6-naphthyridine-2-carboxamide]  0.06 µM
30. O=C(NCC(F)(F)F)c1ccc2cncc(-c3ccc(F)cc3F)c2n1 [Example 126, 8-(2,4-Difluorophenyl)-N-(2,2,2-trifluoroethyl)-1,6-naphthyridine-2-carboxamide]  0.06 µM
31. CC(C)(C)CNC(=O)c1ccc2cncc(-c3ccccc3F)c2n1 [Example 118, 8-(2-Fluorophenyl)-N-neopentyl-1,6-naphthyridine-2-carboxamide]  0.04 µM
32. NC(=O)c1ccc2cncc(-c3ccc(Cl)cc3)c2n1 [Example 44, 8-(4-Chlorophenyl)-1,6-naphthyridine-2-carboxamide]  0.03 µM
33. COCc1cccc(-c2cncc3ccc(C(N)=O)nc23)c1 [Example 100, 8-(3-(Methoxymethyl)phenyl)-1,6-naphthyridine-2-carboxamide]  0.02 µM
34. NC(=O)c1ccc2cncc(-c3ccc(C(F)(F)F)cc3)c2n1 [Example 101, 8-(4-(Trifluoromethyl)phenyl)-1,6-naphthyridine-2-carboxamide]  0.02 µM
35. NC(=O)c1ccc2cncc(-c3ccc(-n4cccn4)cc3)c2n1 [Example 103, 8-(4-(1H-Pyrazol-1-yl)phenyl)-1,6-naphthyridine-2-carboxamide]  0.01 µM
36. CC1(CNC(=O)c2ccc3cncc(-c4ccc(Cl)cc4)c3n2)CCC(=O)N1 (centres unmarked) [Example 62, 8-(4-Chlorophenyl)-N-((2-methyl-5-oxopyrrolidin-2-yl)methyl)-1,6-naphthyridine-2-carboxamide]  0.01 µM
37. COc1ccc(-c2cncc3ccc(C(N)=O)nc23)cc1 [Example 21, 8-(4-Methoxyphenyl)-1,6-naphthyridine-2-carboxamide]  0.01 µM

Same assay, conditions: Homo sapiens, Neural stem cell, 96 h; Table 2, known compounds; concentration at which 150% activity of control (100%) is reached; ATP levels (CellTiterGlo) after 4 days incubation

O=C(c1ccc2cncc(-c3cc4ccccc4o3)c2n1)N1CCCCC1 [Example 205, (8-Benzofuran-2-yl-[1,6]naphthyridin-2-yl)-piperidin-1-yl-methanone] showed an EC (150% of control) of 3.5 µM.
